Reference: ChEMBL document CHEMBL1201862, “PubChem BioAssay data set” (2004)
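Tested at 5 concentrations; 48 h exposure; 96-well plates; endpoints linearly interpolated, else capped at highest concentration. Here, GI50 denotes the concentration required for 50% inhibition of growth.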 Activity calls are given as the source filed them. No stated cut-off is given here; in the data, active = GI50 up to about 1.1 µM and inactive = higher.

Legend:
Assay in all cases: DTP human tumour cell line panel, 48 h
OVCAR-4 = system: OVCAR-4
T47D = system: T47D
SW-620 = system: SW-620
DU-145 = system: DU-145
CAKI-1 = system: CAKI-1
HCT-116 = system: HCT-116
RPMI-8226 = system: RPMI-8226
HCC 2998 = system: HCC 2998
OVCAR-8 = system: OVCAR-8
NCI-H522 = system: NCI-H522
MCF7 = system: MCF7
A549 = system: A549
HOP-92 = system: HOP-92
MDA-MB-435 = system: MDA-MB-435
A498 = system: A498
SK-OV-3 = system: SK-OV-3
SK-MEL-2 = system: SK-MEL-2
CCRF-CEM = system: CCRF-CEM
SK-MEL-5 = system: SK-MEL-5
COLO 205 = system: COLO 205

Structure (SMILES)	GI50 (OVCAR-4)	GI50 (T47D)	GI50 (SW-620)	GI50 (DU-145)	GI50 (CAKI-1)	GI50 (HCT-116)	GI50 (RPMI-8226)	GI50 (HCC 2998)	GI50 (OVCAR-8)	GI50 (NCI-H522)	GI50 (MCF7)	GI50 (A549)	GI50 (HOP-92)	GI50 (MDA-MB-435)	GI50 (A498)	GI50 (SK-OV-3)	GI50 (SK-MEL-2)	GI50 (CCRF-CEM)	GI50 (SK-MEL-5)	GI50 (COLO 205)
O=C(O)CSc1ccc([N+](=O)[O-])cc1[N+](=O)[O-]	> 100 µM (inactive)	> 100 µM (inactive)	> 100 µM (inactive)	> 100 µM (inactive)	> 100 µM (inactive)	> 100 µM (inactive)	> 100 µM (inactive)	> 100 µM (inactive)	> 100 µM (inactive)	> 100 µM (inactive)	> 100 µM (inactive)	> 100 µM (inactive)	> 100 µM (inactive)	> 100 µM (inactive)	> 100 µM (inactive)	> 100 µM (inactive)	> 100 µM (inactive)			
NCCNc1ccc(NCCN)c2c1C(=O)c1c(O)ccc(O)c1C2=O	0.207 µM (active)	0.229 µM (active)	0.0246 µM (active)	0.109 µM (active)	0.00711 µM (active)	0.051 µM (active)	0.0106 µM (active)	0.423 µM (active)	0.0158 µM (active)	0.0324 µM (active)	0.00731 µM (active)	0.00392 µM (active)	0.00686 µM (active)	1.15 µM (inactive)	0.0818 µM (active)	0.0266 µM (active)	0.44 µM (active)	0.00791 µM (active)	0.129 µM (active)	1.08 µM (active)
O=[N+]([O-])c1ccc(NC(=S)N/N=C(\c2ccccc2)c2ccccn2)cc1	1.73 µM (inactive)	1.45 µM (inactive)		1.66 µM (inactive)	1.6 µM (inactive)	1.49 µM (inactive)	4.74 µM (inactive)	1.51 µM (inactive)	0.037 µM (active)	0.12 µM (active)	1.43 µM (inactive)	1.82 µM (inactive)	1.87 µM (inactive)	1.74 µM (inactive)	1.75 µM (inactive)	1.4 µM (inactive)	1.76 µM (inactive)	< 0.0184 µM (active)	1.36 µM (inactive)	0.312 µM (active)
S=C1Cc2c(-c3ccccc3)cc(-c3ccc(Cl)cc3)nc2-c2ccccc2N1	0.42 µM (active)	4.32 µM (inactive)	2.94 µM (inactive)	13 µM (inactive)	1.36 µM (inactive)	1.85 µM (inactive)	> 100 µM (inactive)	5.07 µM (inactive)	0.982 µM (active)	2.06 µM (inactive)	15.1 µM (inactive)	3.17 µM (inactive)	1.72 µM (inactive)	4.79 µM (inactive)	1.62 µM (inactive)	2.38 µM (inactive)	6.85 µM (inactive)	3.08 µM (inactive)	3.47 µM (inactive)	5.57 µM (inactive)
Cc1ccc(C2SCc3nc4ccccc4n32)cc1 (configuration not stated)	8.77 µM (inactive)	10.3 µM (inactive)	4.84 µM (inactive)	4.29 µM (inactive)	1.52 µM (inactive)	3.11 µM (inactive)	5.31 µM (inactive)	10.8 µM (inactive)	3.66 µM (inactive)	4.74 µM (inactive)	4.68 µM (inactive)	6.43 µM (inactive)	3.74 µM (inactive)	0.451 µM (active)	3.15 µM (inactive)	7.8 µM (inactive)	1.1 µM (active)	2.79 µM (inactive)	1.53 µM (inactive)	1.36 µM (inactive)
COc1ccc(C2c3c(n(C)c(=O)n(C)c3=O)OC(N(C)C)(N(C)C)C2(F)F)cc1 (configuration not stated)	> 100 µM (inactive)	> 100 µM (inactive)	> 100 µM (inactive)	> 100 µM (inactive)	> 100 µM (inactive)	> 100 µM (inactive)	> 100 µM (inactive)	> 100 µM (inactive)			> 100 µM (inactive)	> 100 µM (inactive)	> 100 µM (inactive)	> 100 µM (inactive)	> 100 µM (inactive)	> 100 µM (inactive)	> 100 µM (inactive)	> 100 µM (inactive)	> 100 µM (inactive)	> 100 µM (inactive)
Cc1cc(S(=O)(=O)/N=C(\NN)NCC(=O)NN)c(S)cc1Cl	> 10 µM (inactive)	> 10 µM (inactive)	> 10 µM (inactive)	> 10 µM (inactive)	> 10 µM (inactive)	> 10 µM (inactive)	> 10 µM (inactive)	8.73 µM (inactive)	> 10 µM (inactive)	> 10 µM (inactive)	> 10 µM (inactive)	> 10 µM (inactive)	> 10 µM (inactive)	> 10 µM (inactive)	> 10 µM (inactive)	> 10 µM (inactive)	> 10 µM (inactive)	> 10 µM (inactive)	8.85 µM (inactive)	> 10 µM (inactive)
COC(=O)[C@]12CC[C@H]3CN(S(=O)(=O)c4ccc(C)cc4)[C@H]([C@H]31)[C@H](c1ccco1)N2S(=O)(=O)c1ccc(C)cc1	27.7 µM (inactive)	14.1 µM (inactive)	70.1 µM (inactive)	40.6 µM (inactive)	38.1 µM (inactive)	27.2 µM (inactive)	20 µM (inactive)	78.2 µM (inactive)	27.8 µM (inactive)	29.9 µM (inactive)	32.2 µM (inactive)	31.2 µM (inactive)	10.1 µM (inactive)	22.9 µM (inactive)	53.2 µM (inactive)	> 100 µM (inactive)	29.2 µM (inactive)	45.3 µM (inactive)	37.2 µM (inactive)	20.5 µM (inactive)
Cc1cc(=O)oc2cc(OC(=O)Nc3ccc(Cl)c(Cl)c3)ccc12	41.3 µM (inactive)	12 µM (inactive)	21.4 µM (inactive)	25.3 µM (inactive)	38.3 µM (inactive)	15.5 µM (inactive)	9.29 µM (inactive)	19.4 µM (inactive)	20.2 µM (inactive)	17.3 µM (inactive)	25.6 µM (inactive)	24.8 µM (inactive)	13.6 µM (inactive)	20.9 µM (inactive)	14.2 µM (inactive)	36.4 µM (inactive)	21.6 µM (inactive)	20.7 µM (inactive)	16.1 µM (inactive)	32.4 µM (inactive)
N#CC1(C#N)NC(c2cccs2)C(C#N)(C#N)NC1c1cccs1 (configuration not stated)	43.7 µM (inactive)	51.2 µM (inactive)	31.1 µM (inactive)	59.7 µM (inactive)	58.6 µM (inactive)	30.5 µM (inactive)	27.4 µM (inactive)	57.1 µM (inactive)	54.7 µM (inactive)	23.1 µM (inactive)	12.2 µM (inactive)	50.8 µM (inactive)	23 µM (inactive)	46.1 µM (inactive)	20.5 µM (inactive)	33.7 µM (inactive)	14.2 µM (inactive)	22.2 µM (inactive)	26.7 µM (inactive)	47.9 µM (inactive)
COc1cc(OC)c2c(c1)OC(c1cccnc1)C(c1ccccc1)C2=O (configuration not stated)	80.2 µM (inactive)	52 µM (inactive)	> 100 µM (inactive)	> 100 µM (inactive)	74.8 µM (inactive)	> 100 µM (inactive)	> 100 µM (inactive)	> 100 µM (inactive)	59.3 µM (inactive)	72.1 µM (inactive)	> 100 µM (inactive)	> 100 µM (inactive)	> 100 µM (inactive)	84.5 µM (inactive)	> 100 µM (inactive)	> 100 µM (inactive)	34.4 µM (inactive)	> 100 µM (inactive)	> 100 µM (inactive)	> 100 µM (inactive)
C[C@H]1C[C@H]2[C@@H]3CCC4=CC(=O)C=C[C@]4(C)C3=CC[C@]2(C)[C@@]1(O)C(=O)CO	> 100 µM (inactive)	69.8 µM (inactive)		> 100 µM (inactive)	> 100 µM (inactive)	> 100 µM (inactive)	37.2 µM (inactive)	> 100 µM (inactive)	> 100 µM (inactive)	68.2 µM (inactive)	> 100 µM (inactive)	> 100 µM (inactive)	> 100 µM (inactive)	> 100 µM (inactive)	23.4 µM (inactive)	> 100 µM (inactive)	> 100 µM (inactive)	66.8 µM (inactive)	83.4 µM (inactive)	> 100 µM (inactive)
O=c1oc2cc(O)ccc2cc1-c1nc2ccccc2o1	29.8 µM (inactive)	1.07 µM (active)	40.3 µM (inactive)	33.3 µM (inactive)	44 µM (inactive)	41.6 µM (inactive)	24.3 µM (inactive)	39.8 µM (inactive)	34.8 µM (inactive)	17.1 µM (inactive)	32.8 µM (inactive)	29.5 µM (inactive)	26.7 µM (inactive)	28.2 µM (inactive)	29.2 µM (inactive)		21.9 µM (inactive)	8.87 µM (inactive)	19.5 µM (inactive)	30.8 µM (inactive)
NC(=O)C1=C(c2ccccc2)c2ccccc2C1=O	18.5 µM (inactive)	19.1 µM (inactive)	25.1 µM (inactive)	17.1 µM (inactive)	16 µM (inactive)	16.9 µM (inactive)	14.6 µM (inactive)	15.8 µM (inactive)	15.6 µM (inactive)	18.6 µM (inactive)	16.1 µM (inactive)	18.6 µM (inactive)	17.7 µM (inactive)	26.1 µM (inactive)	28 µM (inactive)	18.3 µM (inactive)	19.9 µM (inactive)	2.75 µM (inactive)	16.3 µM (inactive)	22 µM (inactive)
